Source: patent publication US20240116988A1, “ANTI-ROR1 MACROCYCLIC PEPTIDES AND COMPOSITIONS” (BRISTOL-MYERS SQUIBB COMPANY, priority 2022, published 2024)
Positions of bridges follow the written chain, without caps; N, C: chain ends. Non-standard residues stand in square brackets, D forms with d. Residues, ends and D or L forms follow the SMILES beside them. ξ: configuration not given here. NMeF = CN[C@@H](Cc1ccccc1)C(=O)O; Thr(3ξ) = CC(O)[C@H](N)C(=O)O; AEEA = NCCOCCOCC(=O)O; ξL = CC(C)CC(N)C(=O)O

Molecular target: T1, human ROR1 (Homo sapiens, UniProt Q01973)
T1 construct: host or cells: HEK 293T cells, Tet-on system induced with doxycycline
T1 sequence (Q01973 30-937): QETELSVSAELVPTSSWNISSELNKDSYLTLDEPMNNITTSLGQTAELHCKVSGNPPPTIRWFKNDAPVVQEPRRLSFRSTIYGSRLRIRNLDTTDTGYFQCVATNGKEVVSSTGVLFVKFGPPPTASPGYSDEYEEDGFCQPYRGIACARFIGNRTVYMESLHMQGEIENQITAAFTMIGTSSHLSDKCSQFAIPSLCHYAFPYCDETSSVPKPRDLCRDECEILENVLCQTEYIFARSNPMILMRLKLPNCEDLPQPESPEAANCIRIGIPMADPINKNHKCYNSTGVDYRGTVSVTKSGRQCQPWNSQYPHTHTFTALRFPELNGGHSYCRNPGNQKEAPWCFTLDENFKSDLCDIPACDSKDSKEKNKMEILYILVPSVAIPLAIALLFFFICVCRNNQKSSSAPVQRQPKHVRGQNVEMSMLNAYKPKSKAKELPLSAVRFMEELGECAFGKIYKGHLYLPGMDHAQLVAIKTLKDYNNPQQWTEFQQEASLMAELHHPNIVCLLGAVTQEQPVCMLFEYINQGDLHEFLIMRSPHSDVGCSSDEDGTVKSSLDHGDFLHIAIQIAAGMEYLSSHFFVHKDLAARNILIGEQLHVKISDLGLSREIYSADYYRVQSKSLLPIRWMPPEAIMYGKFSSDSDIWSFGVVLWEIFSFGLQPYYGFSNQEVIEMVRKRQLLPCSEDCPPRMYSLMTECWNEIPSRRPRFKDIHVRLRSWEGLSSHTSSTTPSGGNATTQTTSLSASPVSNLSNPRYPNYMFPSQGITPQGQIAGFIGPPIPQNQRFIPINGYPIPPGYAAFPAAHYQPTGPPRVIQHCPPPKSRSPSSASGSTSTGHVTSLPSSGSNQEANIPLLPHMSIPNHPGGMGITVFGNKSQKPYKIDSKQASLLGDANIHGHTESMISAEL
Test: ROR1 high content cell-based binding assay
Conditions: read-out: ROR1 Binding 293T Human HC Cell Based Assay IC50
Experimental: ROR1 high content cell-based binding assay: Human embryonic kidney 293T cells (293T) expressing human ROR1 with Tet-on system by doxycycline were used (Arctic-488134) for the assessment of inhibition of the binding of fluorescently-labeled competing peptide (“Probe”) that specifically binds to human ROR1. […] Cryopreserved vials were thawed in a 37° C. water bath. Cells were washed in assay culture media [DMEM (Life Technologies Inc. Cat. […] Cat. No. 15140-122) and […] dox] and diluted 1.0×10^5 cells/mL. Cells were seeded into PDL-coated 384 well plates (BD Falcon Cat. No. 356663) at 2,000 cells/20 μL. Plates were allowed to incubate for 10 minutes at room temperature and then transferred to a 37° C./5% CO2 incubator for overnight incubation. The next day, 125 nL of the test compound was added using an ECHO followed by the addition of 5 μL/well of 5-FAM-labeled probe to cells at a final concentration of 30 nM. Sample were incubated for 1 hour at 37° C. for 1 hour, followed by 3 washes in […] of dPBS. Cells were fixed by adding 8% (w/v) formaldehyde (Sigma Cat. No. 252549), 20 μg/mL Hoechst (Thermo Scientific Cat. No. 62249) in PBS for 20 minutes at room temperature. The plates were washed 3 more times in dPBS and 15 μl of PBS was left in the wells following the last wash. The plates were sealed, and data was using obtained using a CellInsight NXT High Content Screening Platform IC903000 (Thermo Scientific).

CC(C)C[C@@H]1NC(=O)[C@H](Cc2ccc(O)cc2)NC(=O)[C@H](Cc2ccccc2)NC(=O)CSC[C@@H](C(=O)NCC(N)=O)NC(=O)[C@H](CC(C)C)NC(=O)[C@H](Cc2ccccc2)N(C)C(=O)[C@H](Cc2ccc(O)cc2)NC(=O)[C@H](Cc2c[nH]c3ccccc23)NC(=O)CNC(=O)[C@@H](C)NC(=O)[C@H](Cc2ccc(O)cc2)NC(=O)[C@H](C(C)C)NC1=O [Example 1048] ({CH2CO}-FYLVY[dA]GWY[NMeF]LCG-NH2; thioether N-12)
IC50: 666 nM

CC(C)C[C@@H]1NC(=O)[C@@H](C)NC(=O)[C@H](Cc2ccccc2)N(C)C(=O)CNC(=O)[C@H](Cc2ccc(O)cc2)NC(=O)[C@H](Cc2ccccc2)NC(=O)CSC[C@@H](C(N)=O)NC(=O)[C@H](Cc2c[nH]c3ccccc23)NC(=O)[C@H](Cc2ccc(O)cc2)NC1=O [Example 1116] ({CH2CO}-FYG[NMeF][dA]LYWC-NH2; thioether N-9)
IC50: 183 nM

CC(C)C[C@@H]1NC(=O)[C@H](Cc2ccc(O)cc2)NC(=O)[C@H](Cc2ccccc2)NC(=O)CSC[C@@H](C(=O)NCC(N)=O)NC(=O)[C@H](CC(C)C)NC(=O)[C@H](Cc2ccccc2)N(C)C(=O)[C@H](Cc2ccc(O)cc2)NC(=O)[C@H](Cc2c[nH]c3ccccc23)NC(=O)[C@H](CCC(=O)O)NC(=O)[C@H](CO)NC(=O)[C@H](Cc2ccc(O)cc2)NC(=O)[C@H](C(C)C)NC1=O [Example 1053] ({CH2CO}-FYLVYSEWY[NMeF]LCG-NH2; thioether N-12)
IC50: 760 nM

CC(C)C[C@@H]1NC(=O)[C@H](Cc2ccc(O)cc2)NC(=O)[C@H](Cc2ccccc2)NC(=O)CSC[C@@H](C(=O)NCC(N)=O)NC(=O)[C@H](CC(C)C)NC(=O)[C@H](Cc2ccccc2)N(C)C(=O)[C@H](C)NC(=O)[C@H](Cc2c[nH]c3ccccc23)NC(=O)CNC(=O)[C@H](CO)NC(=O)[C@H](Cc2ccc(O)cc2)NC(=O)[C@H](C(C)C)NC1=O [Example 1039] ({CH2CO}-FYLVYSGWA[NMeF]LCG-NH2; thioether N-12)
IC50: 681 nM

CC(C)CC1NC(=O)[C@H](Cc2ccc(O)cc2)NC(=O)[C@H](C(C)C)NC(=O)CSC[C@@H](C(=O)NCC(N)=O)NC(=O)[C@H](CC(C)C)NC(=O)[C@H](Cc2ccccc2)N(C)C(=O)[C@H](Cc2ccc(O)cc2)NC(=O)[C@H](Cc2c[nH]c3ccccc23)NC(=O)CNC(=O)[C@H](CO)NC(=O)[C@H](Cc2ccc(O)cc2)NC(=O)[C@H](C(C)C)NC1=O (stereo partly drawn) [Example 1074] ({CH2CO}-VY[ξL]VYSGWY[NMeF]LCG-NH2; thioether N-12)
IC50: 122 nM

CC(C)C[C@@H]1NC(=O)[C@H](Cc2ccccc2)NC(=O)CSC[C@@H](C(=O)NCC(=O)NCCOCCOCC(=O)O)NC(=O)[C@H](C)NC(=O)[C@H](Cc2ccc(O)cc2)NC(=O)[C@H](Cc2ccc(O)cc2)NC(=O)[C@H](Cc2c[nH]c3ccccc23)NC(=O)CNC(=O)[C@H](Cc2ccc(O)cc2)NC(=O)[C@H](CCCNC(=N)N)NC(=O)[C@H](C(C)C)NC(=O)[C@H](Cc2c[nH]c3ccccc23)NC1=O [Example 1087] ({CH2CO}-FLWVRYGWYYACG[AEEA]-OH; thioether N-12)
IC50: 131 nM

CC(C)C[C@@H]1NC(=O)[C@H](Cc2ccc(O)cc2)NC(=O)[C@H](Cc2ccccc2)NC(=O)CSC[C@@H](C(=O)NCC(N)=O)NC(=O)CNC(=O)[C@H](Cc2ccccc2)N(C)C(=O)[C@H](Cc2ccc(O)cc2)NC(=O)[C@H](Cc2c[nH]c3ccccc23)NC(=O)CNC(=O)[C@H](CO)NC(=O)[C@H](Cc2ccc(O)cc2)NC(=O)[C@H](C(C)C)NC1=O [Example 1065] ({CH2CO}-FYLVYSGWY[NMeF]GCG-NH2; thioether N-12)
IC50: 22 nM

CC(C)C[C@@H]1NC(=O)[C@H](C(C)O)NC(=O)[C@H](Cc2ccccc2)N(C)C(=O)CNC(=O)[C@H](Cc2ccc(O)cc2)NC(=O)[C@H](Cc2ccccc2)NC(=O)CSC[C@@H](C(N)=O)NC(=O)[C@H](Cc2c[nH]c3ccccc23)NC(=O)[C@H](Cc2ccc(O)cc2)NC1=O (stereo partly drawn) [Example 1114] ({CH2CO}-FYG[NMeF][Thr(3ξ)]LYWC-NH2; thioether N-9)
IC50: 470 nM

CC(C)C[C@@H]1NC(=O)[C@H](Cc2ccc(O)cc2)NC(=O)[C@H](Cc2ccccc2)NC(=O)CSC[C@@H](C(=O)NCC(N)=O)NC(=O)[C@H](CC(C)C)NC(=O)[C@H](Cc2ccccc2)N(C)C(=O)[C@H](Cc2ccc(O)cc2)NC(=O)[C@H](Cc2c[nH]c3ccccc23)NC(=O)CNC(=O)[C@H](CO)NC(=O)[C@H](CO)NC(=O)[C@H](C(C)C)NC1=O [Example 1026] ({CH2CO}-FYLVSSGWY[NMeF]LCG-NH2; thioether N-12)
IC50: 59 nM

CC(C)C[C@@H]1NC(=O)[C@H](Cc2ccc(O)cc2)NC(=O)[C@H](Cc2ccccc2)NC(=O)CSC[C@@H](C(=O)NCC(N)=O)NC(=O)[C@H](CC(C)C)NC(=O)[C@H](Cc2ccccc2)N(C)C(=O)[C@H](Cc2ccc(O)cc2)NC(=O)[C@H](Cc2c[nH]c3ccccc23)NC(=O)CNC(=O)[C@H](CO)NC(=O)[C@H](C)NC(=O)[C@H](C(C)C)NC1=O [Example 1027] ({CH2CO}-FYLVASGWY[NMeF]LCG-NH2; thioether N-12)
IC50: 870 nM

CC(C)C[C@@H]1NC(=O)[C@H](Cc2ccc(O)cc2)NC(=O)[C@H](Cc2ccccc2)NC(=O)CSC[C@@H](C(=O)NCC(N)=O)NC(=O)[C@H](CC(C)C)NC(=O)[C@H](Cc2ccccc2)N(C)C(=O)[C@H](Cc2ccc(O)cc2)NC(=O)[C@H](Cc2c[nH]c3ccccc23)NC(=O)CNC(=O)[C@H](Cc2cnc[nH]2)NC(=O)[C@H](Cc2ccc(O)cc2)NC(=O)[C@H](C(C)C)NC1=O [Example 1015] ({CH2CO}-FYLVYHGWY[NMeF]LCG-NH2; thioether N-12)
IC50: 17 nM

CC(C)C[C@@H]1NC(=O)[C@H](C)NC(=O)[C@H](Cc2ccccc2)NC(=O)CSC[C@@H](C(=O)NCC(N)=O)NC(=O)[C@H](CC(C)C)NC(=O)[C@H](Cc2ccccc2)N(C)C(=O)[C@H](Cc2ccc(O)cc2)NC(=O)[C@H](Cc2c[nH]c3ccccc23)NC(=O)CNC(=O)[C@H](CO)NC(=O)[C@H](Cc2ccc(O)cc2)NC(=O)[C@H](C(C)C)NC1=O [Example 1038] ({CH2CO}-FALVYSGWY[NMeF]LCG-NH2; thioether N-12)
IC50: 23 nM

CC(C)C[C@@H]1NC(=O)[C@H](Cc2ccc(O)cc2)NC(=O)[C@H](Cc2ccccc2)NC(=O)CSC[C@@H](C(=O)NCC(N)=O)NC(=O)[C@H](CC(C)C)NC(=O)[C@H](Cc2ccccc2)N(C)C(=O)[C@H](Cc2ccc(O)cc2)NC(=O)[C@H](Cc2c[nH]c3ccccc23)NC(=O)[C@H](CCCNC(=N)N)NC(=O)[C@H](CO)NC(=O)[C@H](Cc2ccc(O)cc2)NC(=O)[C@H](C(C)C)NC1=O [Example 1047] ({CH2CO}-FYLVYSRWY[NMeF]LCG-NH2; thioether N-12)
IC50: 243 nM

CC(C)C[C@@H]1NC(=O)CNC(=O)[C@H](Cc2ccccc2)NC(=O)CSC[C@@H](C(=O)NCC(N)=O)NC(=O)[C@H](CC(C)C)NC(=O)[C@H](Cc2ccccc2)N(C)C(=O)[C@H](Cc2ccc(O)cc2)NC(=O)[C@H](Cc2c[nH]c3ccccc23)NC(=O)CNC(=O)[C@H](CO)NC(=O)[C@H](Cc2ccc(O)cc2)NC(=O)[C@H](C(C)C)NC1=O [Example 1068] ({CH2CO}-FGLVYSGWY[NMeF]LCG-NH2; thioether N-12)
IC50: 453 nM

CC(C)C[C@@H]1NC(=O)[C@H](Cc2ccccc2)NC(=O)[C@H](Cc2ccccc2)N(C)C(=O)CNC(=O)[C@H](Cc2ccc(O)cc2)NC(=O)[C@H](Cc2ccccc2)NC(=O)CSC[C@@H](C(N)=O)NC(=O)[C@H](Cc2c[nH]c3ccccc23)NC(=O)[C@H](Cc2ccc(O)cc2)NC1=O [Example 1102] ({CH2CO}-FYG[NMeF]FLYWC-NH2; thioether N-9)
IC50: 97 nM

CC(C)C[C@@H]1NC(=O)[C@H](Cc2ccccc2)NC(=O)CSC[C@@H](C(=O)NCC(N)=O)NC(=O)[C@H](C(C)C)NC(=O)[C@H](Cc2ccccc2)N(C)C(=O)[C@H](CC(C)C)NC(=O)[C@H](Cc2c[nH]c3ccccc23)NC(=O)CN(C)C(=O)CNC(=O)[C@H](C(C)C)NC(=O)[C@H](Cc2c[nH]c3ccccc23)NC1=O [Example 1201]
IC50: 39 nM

CC(C)C[C@@H]1NC(=O)[C@H](Cc2ccc(O)cc2)NC(=O)[C@H](CC(N)=O)NC(=O)CSC[C@@H](C(=O)NCC(N)=O)NC(=O)[C@H](CC(C)C)NC(=O)[C@H](Cc2ccccc2)N(C)C(=O)[C@H](Cc2ccc(O)cc2)NC(=O)[C@H](Cc2c[nH]c3ccccc23)NC(=O)CNC(=O)[C@H](CO)NC(=O)[C@H](Cc2ccc(O)cc2)NC(=O)[C@H](C(C)C)NC1=O [Example 1076] ({CH2CO}-NYLVYSGWY[NMeF]LCG-NH2; thioether N-12)
IC50: 518 nM

CC(C)C[C@@H]1NC(=O)[C@H](Cc2ccc(O)cc2)NC(=O)[C@H](Cc2ccccc2)NC(=O)CSC[C@@H](C(=O)NCC(N)=O)NC(=O)[C@H](CC(C)C)NC(=O)[C@H](Cc2ccccc2)N(C)C(=O)[C@H](Cc2ccc(O)cc2)NC(=O)[C@H](Cc2c[nH]c3ccccc23)NC(=O)CNC(=O)[C@H](CCCCN)NC(=O)[C@H](Cc2ccc(O)cc2)NC(=O)[C@H](C(C)C)NC1=O [Example 1019] ({CH2CO}-FYLVYKGWY[NMeF]LCG-NH2; thioether N-12)
IC50: 27 nM
